Usually IC50 stands for the point on the concentration scale where inhibition reaches its midpoint. A lower IC50 goes with greater potency in that assay.

Structures are written as SMILES.

Among the data in BindingDB's records for doi:10.1158/1535-7163.MCT-06-0397 (Loma Linda University, 2007) are IC50 values, retold here.

In this test the target is Serine/threonine-protein kinase pim-1 (Homo sapiens, UniProt P11309). Put plainly: Solid-Phase ELISA Kinase Assay. The note with it: pH 7; 30 °C. How it is done:
The 96-well flat-bottomed plates were coated with recombinant GST-BAD. After the plates were blocked, the reaction buffer containing test compound and recombinant GST-PIM1 kinase were added to each well. Phosphorylated GST-BAD was detected by an ELISA reaction. The level of phosphorylated GST-BAD present was proportional to the absorbance at 450 nm. Curve fitting and enzyme analyses were done using GraphPad Prism version 4.00 (GraphPad Software, San Diego, CA).

Chain of Serine/threonine-protein kinase pim-1 (P11309 whole entry): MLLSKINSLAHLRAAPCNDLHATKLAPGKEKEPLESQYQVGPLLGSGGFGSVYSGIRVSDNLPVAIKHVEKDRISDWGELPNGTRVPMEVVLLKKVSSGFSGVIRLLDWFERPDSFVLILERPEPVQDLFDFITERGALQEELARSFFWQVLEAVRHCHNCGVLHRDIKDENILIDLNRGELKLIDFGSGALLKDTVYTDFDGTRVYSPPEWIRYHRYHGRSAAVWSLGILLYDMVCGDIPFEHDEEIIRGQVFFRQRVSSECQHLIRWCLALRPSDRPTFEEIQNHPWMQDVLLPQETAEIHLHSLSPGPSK

As to `CC(C)=CCc1c(O)cc(O)c2c1O[C@H](c1ccccc1)CC2=O` [(2S)-5,7-dihydroxy-8-(3-methylbut-2-en-1-yl)-2-phenyl-3,4-dihydro-2H-1-benzopyran-4-one], the IC50 is 12.5 µM.

`O=c1cc(-c2ccccc2)oc2cc(O)ccc12` [7-Hydroxy-flavone, 5a] displayed an IC50 of 14 µM.

Take `O=c1c(O)c(-c2ccc(O)cc2O)oc2ccc(O)cc12` [2-(2,4-dihydroxyphenyl)-3,6-dihydroxy-4H-chromen-4-one]: 8.3 µM corresponded to half-maximal inhibition (IC50).

Turning to `O=C1C[C@H](c2ccccc2)Oc2cc(O)cc(O)c21` [(2R)-5,7-dihydroxy-2-phenyl-3,4-dihydro-2H-1-benzopyran-4-one], it took 60.2 µM to reach half-maximal inhibition (IC50).

In turn, `O=c1c(O)c(-c2ccc(O)cc2)oc2cc(O)cc(O)c12` showed an IC50 of 1.3 µM.

The compound `O=c1cc(-c2ccc(O)cc2)oc2cc(O)cc(O)c12` [Naringenin, 18] showed an IC50 of 0.94 µM.

`O=c1c(O)c(-c2cc(O)c(O)c(O)c2)oc2cc(O)cc(O)c12`: inhibition was half-maximal at 0.78 µM (IC50).

The compound `O=c1cc(-c2cccc(O)c2)oc2cc(O)ccc12` [7-hydroxy-2-(3-hydroxyphenyl)-4H-chromen-4-one] registered an IC50 of 4.52 µM.

With `O=c1cc(-c2ccc(O)c(O)c2)oc2cc(O)cc(O)c12` [2-(3,4-dihydroxyphenyl)-5,7-dihydroxy-4H-chromen-4-one], 1.6 µM corresponded to half-maximal inhibition (IC50).

Take `O=c1c(O)c(-c2ccc(O)cc2)oc2cc(O)ccc12` [3,7-dihydroxy-2-(4-hydroxyphenyl)-4H-chromen-4-one]: the half-inhibitory concentration (IC50) was found to be 0.98 µM.

For `O=c1c(O)c(-c2ccc(O)c(O)c2)oc2c(O)c(O)cc(O)c12`, the IC50 is 0.43 µM.

As for `O=c1cc(-c2ccc(O)cc2)oc2c(O)c(O)ccc12`, the concentration for half-maximal inhibition (IC50) is 22 µM.

`O=c1c(O)c(-c2ccccc2)oc2cc(O)ccc12` [3,7-dihydroxy-2-phenyl-4H-chromen-4-one] registered a half-maximal inhibitory concentration (IC50) of 4.6 µM.

`O=C1C[C@@H](c2ccccc2)Oc2cc(O)cc(O)c21` showed an IC50 of 107 µM.

For `O=c1cc(-c2ccccc2)oc2cc(O)cc(O)c12` [5,7-dihydroxy-2-phenyl-4H-chromen-4-one], it took 15 µM to reach half-maximal inhibition (IC50).

As to `O=c1cc(-c2cc(O)c(O)c(O)c2)oc2cc(O)ccc12` [7-hydroxy-2-(3,4,5-trihydroxyphenyl)-4H-chromen-4-one], the half-maximal inhibitory concentration (IC50) was 7.8 µM.

In the case of `O=c1c(O)c(-c2ccc(O)cc2O)oc2cc(O)cc(O)c12` [2-(2,4-dihydroxyphenyl)-3,5,7-trihydroxychromen-4-one], the IC50 amounted to 2.7 µM.

With `O=c1c(O)c(-c2ccc(O)c(O)c2)oc2cc(O)ccc12` [2-(3,4-dihydroxyphenyl)-3,7-dihydroxy-chromen-4-one], it took 0.85 µM to reach half-maximal inhibition (IC50).
